Some results are limits rather than exact numbers.

Holding throughout (settings): averaged IC50
Assay [1] has as its target His-tagged recombinant human MER cytoplasmic domain (Homo sapiens (Human), UniProt Q12866). Nature of the assay: MER Enzyme Assay (LanthaScreen Eu Kinase Binding, TR-FRET). In short, it runs like this:
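Percent of control, derived from ratiometric TR-FRET emission, was fitted to a 4-parameter logistic curve and IC50 taken at 50 POC. Binding was read after 60 min at 22 °C using Eu-based LanthaScreen technology and recombinant His-tagged MER cytoplasmic domain.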
On the technique in general: TR-FRET usually uses a lanthanide donor and a delayed reading to cut background.

Assay [2] addresses His-tagged recombinant human AXL cytoplasmic domain (Homo sapiens (Human), UniProt P30530). Nature of the assay: AXL Enzyme Assay (LanthaScreen Eu Kinase Binding, TR-FRET). A digest of the protocol: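 Compound displacement measured by TR-FRET after 60 min at 22 °C, using Eu-based LanthaScreen binding technology. Ratiometric emission converted to percent of control, fitted to a 4-parameter logistic curve, with IC50 at 50 POC.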

Assay [3] concerns the target GST-tagged recombinant human TYRO3 kinase domain (Homo sapiens (Human), UniProt Q06418). Nature of the assay: TYRO3 Enzyme Assay (LanthaScreen Eu Kinase Binding, TR-FRET). A digest of the protocol:
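LanthaScreen Eu binding (tracer displacement) format read by TR-FRET after 60 min at 22 °C. Emission ratio converted to percent of control; IC50 taken where a 4-parameter logistic fit crosses 50 POC.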

His-tagged recombinant human MER cytoplasmic domain, sequence (Q12866 527-999): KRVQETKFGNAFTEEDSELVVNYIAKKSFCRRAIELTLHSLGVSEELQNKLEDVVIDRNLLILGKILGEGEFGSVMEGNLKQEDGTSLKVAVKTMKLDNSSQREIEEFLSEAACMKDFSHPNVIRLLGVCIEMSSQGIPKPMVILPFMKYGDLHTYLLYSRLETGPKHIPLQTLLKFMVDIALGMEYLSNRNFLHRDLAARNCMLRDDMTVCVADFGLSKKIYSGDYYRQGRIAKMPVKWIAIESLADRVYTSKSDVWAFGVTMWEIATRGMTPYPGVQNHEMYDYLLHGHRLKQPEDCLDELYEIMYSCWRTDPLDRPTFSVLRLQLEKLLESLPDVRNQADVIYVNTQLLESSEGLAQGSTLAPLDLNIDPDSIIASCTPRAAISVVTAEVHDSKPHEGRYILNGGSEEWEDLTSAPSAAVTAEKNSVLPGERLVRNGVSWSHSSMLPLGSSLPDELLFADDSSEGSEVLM
His-tagged recombinant human AXL cytoplasmic domain, sequence (P30530 473-894): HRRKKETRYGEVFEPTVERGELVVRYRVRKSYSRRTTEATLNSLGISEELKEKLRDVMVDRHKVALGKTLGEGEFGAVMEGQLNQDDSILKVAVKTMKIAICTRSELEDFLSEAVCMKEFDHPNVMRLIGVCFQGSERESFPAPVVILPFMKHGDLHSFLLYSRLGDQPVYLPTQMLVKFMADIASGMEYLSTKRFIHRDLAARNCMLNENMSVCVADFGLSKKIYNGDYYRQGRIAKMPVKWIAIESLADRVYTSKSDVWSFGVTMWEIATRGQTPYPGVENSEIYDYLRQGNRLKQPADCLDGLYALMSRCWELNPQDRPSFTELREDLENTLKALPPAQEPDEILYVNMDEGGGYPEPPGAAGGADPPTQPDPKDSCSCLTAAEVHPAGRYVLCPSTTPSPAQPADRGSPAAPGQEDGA
GST-tagged recombinant human TYRO3 kinase domain, sequence (Q06418 518-790): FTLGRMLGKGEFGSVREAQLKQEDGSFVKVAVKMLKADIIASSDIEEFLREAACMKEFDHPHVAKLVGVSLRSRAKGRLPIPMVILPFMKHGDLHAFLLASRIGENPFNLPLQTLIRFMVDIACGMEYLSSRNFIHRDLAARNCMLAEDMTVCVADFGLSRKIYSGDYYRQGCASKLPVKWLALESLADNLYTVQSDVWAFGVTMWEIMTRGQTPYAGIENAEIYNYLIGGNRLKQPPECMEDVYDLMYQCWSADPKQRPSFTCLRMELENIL

What is called IC50 is the concentration that inhibits the measured activity by half. Regarding `CCNc1cc2c(cn1)c(-c1cnn(C[C@@H](O)C(C)(C)O)c1)nn2[C@H]1CC[C@@H](Oc2ccccc2F)CC1` [Example 442, (R)-1-(4-(6-(ethylamino)-1-((1s,4S)-4-(2-fluorophenoxy)cyclohexyl)-1H-pyrazolo[4,3-c]pyridin-3-yl)-1H-pyrazol-1-yl)-3-methylbutane-2,3-diol], the IC50 in assay [1] is less than 0.01 µM; in assay [2], less than 0.01 µM; in assay [3], 0.01 to 0.1 µM.

For `CCNc1cc2c(cn1)c(-c1cnn(C[C@H](O)CO)c1)nn2[C@H]1CC[C@@H](Oc2ccc(F)cc2F)CC1` [Example 444, (S)-3-(4-(1-((1s,4R)-4-(2,4-difluorophenoxy)cyclohexyl)-6-(ethylamino)-1H-pyrazolo[4,3-c]pyridin-3-yl)-1H-pyrazol-1-yl)propane-1,2-diol], the IC50 is less than 0.01 µM in assay [1], less than 0.01 µM in assay [2] and 0.01 to 0.1 µM in assay [3].

For `CCNc1cc2c(cn1)c(-c1cnn(C[C@H](O)C(C)(C)O)c1)nn2[C@H]1CC[C@@H](Oc2cccc(F)c2F)CC1` [Example 445, (S)-1-(4-(1-((1s,4R)-4-(2,3-difluorophenoxy)cyclohexyl)-6-(ethylamino)-1H-pyrazolo[4,3-c]pyridin-3-yl)-1H-pyrazol-1-yl)-3-methylbutane-2,3-diol], the IC50 in assay [1], in assay [2] and in assay [3] was less than 0.01 µM in each case.

With `CCNc1cc2c(cn1)c(-c1cnn(C[C@@H](O)C(C)(C)O)c1)nn2[C@H]1CC[C@@H](Oc2cccc(F)c2F)CC1` [Example 446, (R)-1-(4-(1-((1s,4S)-4-(2,3-difluorophenoxy)cyclohexyl)-6-(ethylamino)-1H-pyrazolo[4,3-c]pyridin-3-yl)-1H-pyrazol-1-yl)-3-methylbutane-2,3-diol], the IC50 in assay [1], in assay [2] and in assay [3] was less than 0.01 µM in each case.

Consider `CCNc1cc2c(cn1)c(-c1cnn(C[C@@H](O)C(C)(C)O)c1)nn2[C@H]1CC[C@@H](Oc2ccc(F)cc2F)CC1` [Example 447, (R)-1-(4-(1-((1s,4S)-4-(2,4-difluorophenoxy)cyclohexyl)-6-(ethylamino)-1H-pyrazolo[4,3-c]pyridin-3-yl)-1H-pyrazol-1-yl)-3-methylbutane-2,3-diol], for which the 50% inhibitory concentration (IC50) is less than 0.01 µM in assay [1], less than 0.01 µM in assay [2] and 0.01 to 0.1 µM in assay [3].

As to `CCNc1cc2c(cn1)c(-c1cnn(C[C@H](O)C(C)(C)O)c1)nn2[C@H]1CC[C@@H](Oc2ccc(F)cc2F)CC1` [Example 448, (S)-1-(4-(1-((1s,4S)-4-(2,4-difIuorophenoxy)cyclohexyl)-6-(ethylamino)-1H pyrazolo[4,3-c]pyridin-3-yl)-1H-pyrazol-1-yl)-3-methylbutane-2,3-diol], the results for the IC50 in assay [1], in assay [2] and in assay [3] were less than 0.01 µM, less than 0.01 µM and 0.01 to 0.1 µM, respectively.

As to `CNc1cc2c(cn1)c(-c1cnn(C)c1)nn2[C@@H]1CC[C@H](Oc2ccccc2)[C@@H](O)C1` [Example 471A, (1S,2S,5R)-5-(3-(1-methyl-1H-pyrazol-4-yl)-6-(methylamino)-1H-pyrazolo[4,3-c]pyridin-1-yl)-2-phenoxycyclohexan-1-ol], the figures for the IC50 in assay [1], in assay [2] and in assay [3] were less than 0.01 µM, less than 0.01 µM and 0.01 to 0.1 µM, respectively.

For the molecule `CNc1cc2c(cn1)c(-c1cnn(C)c1)nn2[C@H]1CC[C@@H](Oc2ccccc2)[C@H](O)C1` [Example 471B, (1R,2R,5S)-5-(3-(1-methyl-1H-pyrazol-4-yl)-6-(methylamino)-1H-pyrazolo[4,3-c]pyridin-1-yl)-2-phenoxycyclohexan-1-ol], the IC50 in assay [1] was less than 0.01 µM; in assay [2] it was less than 0.01 µM; in assay [3], 0.01 to 0.1 µM.

Regarding `CCNc1cc2c(cn1)c(-c1cnn(C[C@@H](O)CO)c1)nn2[C@H]1CC[C@@H](Oc2nccc(C#N)c2F)CC1` [Example 487, 2-(((1S,4s)-4-(3-(1-((R)-2,3-dihydroxypropyl)-1H-pyrazol-4-yl)-6-(ethylamino)-1H-pyrazolo[4,3-c]pyridin-1-yl)cyclohexyl)oxy)-3-fluoroisonicotinonitrile], the IC50 in assay [1], in assay [2] and in assay [3] was less than 0.01 µM each time.

For `CCNc1cc2c(cn1)c(N1CC[C@@H](O)C1)nn2[C@H]1CC[C@@H](Oc2nccc(C(F)(F)F)c2F)CC1` [Example 488, (R)-1-(6-(ethylamino)-1-((1s,4S)-4-((3-fluoro-4-(trifluoromethyl)pyridin-2-yl)oxy)cyclohexyl)-1H-pyrazolo[4,3-c]pyridin-3-yl)pyrrolidin-3-ol], the IC50 was less than 0.01 µM in assay [1], less than 0.01 µM in assay [2] and 0.01 to 0.1 µM in assay [3].

Take `CCNc1cc2c(cn1)c(N1CCC(N3CCN(C)CC3)CC1)nn2[C@H]1CC[C@@H](Oc2nccc(C(F)(F)F)c2F)CC1` [Example 489, N-ethyl-1-((1s,4s)-4((3-fluoro-4-(trifluoromethyl)pyridin-2-yl)oxy)cyclohexyl)-3-(4-(4-methylpiperazin-1-yl)piperidin-1-yl)-1H-pyrazolo[4,3-c]pyridin-6-amine]: the 50% inhibitory concentration (IC50) is less than 0.01 µM in assay [1], less than 0.01 µM in assay [2] and 0.01 to 0.1 µM in assay [3].

Take `CCNc1cc2c(cn1)c(N1CCNCC1)nn2[C@H]1CC[C@@H](Oc2cccc(C(F)(F)F)c2F)CC1` [Example 490, N-ethyl-1-((1s,4s)-4-(2-fluoro-3-(trifluoromethyl)phenoxy)cyclohexyl)-3-(piperazin-1-yl)-1H-pyrazolo[4,3-c]pyridin-6-amine]: the concentration for half-maximal inhibition (IC50) in assay [1], in assay [2] and in assay [3] was less than 0.01 µM throughout.

Turning to `CCNc1cc2c(cn1)c(N1CC[C@H](NC)C1)nn2[C@H]1CC[C@@H](Oc2cccc(C(F)(F)F)c2F)CC1` [Example 491, N-ethyl-1-((1s,4R)-4-(2-fluoro-3-(trifluoromethyl)phenoxy)cyclohexyl)-3-((S)-3-(methylamino)pyrrolidin-1-yl)-1H-pyrazolo[4,3-c]pyridin-6-amine], the half-maximal inhibitory concentration (IC50) was less than 0.01 µM in assay [1], less than 0.01 µM in assay [2] and 0.01 to 0.1 µM in assay [3].

`CCNc1cc2c(cn1)c(N1CC[C@@H](NC)C1)nn2[C@H]1CC[C@@H](Oc2cccc(C(F)(F)F)c2F)CC1` [Example 492, N-ethyl-1-((1s,4S)-4-(2-fluoro-3-(trifluoromethyl)phenoxy)cyclohexyl)-3-((R)-3-(methylamino)pyrrolidin-1-yl)-1H-pyrazolo[4,3-c]pyridin-6-amine]: the figures for the IC50 in assay [1], in assay [2] and in assay [3] were less than 0.01 µM, less than 0.01 µM and 0.01 to 0.1 µM, respectively.

For `CCNc1cc2c(cn1)c(N1CC[C@H](N)C1)nn2[C@H]1CC[C@@H](Oc2nccc(C(F)(F)F)c2F)CC1` [Example 493, 3-((S)-3-aminopyrrolidin-1-yl)-N-ethyl-1-((1s,4R)-4-((3-fluoro-4-(trifluoromethyl)pyridin-2-yl)oxy)cyclohexyl)-1H-pyrazolo[4,3-c]pyridin-6-amine], the values for the half-inhibitory concentration (IC50) in assay [1], in assay [2] and in assay [3] were less than 0.01 µM, less than 0.01 µM and 0.01 to 0.1 µM, respectively.

`CCNc1cc2c(cn1)c(N1CC[C@@H](N)C1)nn2[C@H]1CC[C@@H](Oc2nccc(C(F)(F)F)c2F)CC1` [Example 494, 3-((R)-3-aminopyrrolidin-1-yl)-N-ethyl-1-((1s,4S)-4-((3-fluoro-4-(trifluoromethyl)pyridin-2-yl)oxy)cyclohexyl)-1H-pyrazolo[4,3-c]pyridin-6-amine]: the half-maximal inhibitory concentration (IC50) in assay [1] is less than 0.01 µM; in assay [2] it was less than 0.01 µM; in assay [3] it was 0.01 to 0.1 µM.

For `CNc1cc2c(cn1)c(N1CCNCC1)nn2[C@H]1CC[C@@H](Oc2nccc(C(F)(F)F)c2F)CC1` [Example 495, 1-((1s,4s)-4-((3-fluoro-4-(trifluoromethyl)pyridin-2-yl)oxy)cyclohexyl)-N-methyl-3-(piperazin-1-yl)-1H-pyrazolo[4,3-c]pyridin-6-amine], the IC50 in assay [1], in assay [2] and in assay [3] was less than 0.01 µM throughout.

For `CCNc1cc2c(cn1)c(-c1cnn(CCN3CCN(C)CC3)c1)nn2[C@H]1CC[C@@H](Oc2nccc(C(F)(F)F)c2F)CC1` [Example 496], the 50% inhibitory concentration (IC50) in assay [1], in assay [2] and in assay [3] was less than 0.01 µM in each case.

Consider `CCNc1cc2c(cn1)c(-c1cnn(C)c1)nn2[C@H]1CC[C@@H](Oc2cccc(C#N)c2F)CC1` [Example 497], for which the IC50 in assay [1], in assay [2] and in assay [3] was less than 0.01 µM in each case.

With `CCNc1cc2c(cn1)c(-c1cnn(C)c1)nn2[C@H]1CC[C@@H](Oc2cccc(C(F)(F)F)c2F)CC1` [Example 498, N-ethyl-1-((1s,4s)-4-(2-fluoro-3-(trifluoromethyl)phenoxy)cyclohexyl)-3-(1-methyl-1H-pyrazol-4-yl)-1H-pyrazolo[4,3-c]pyridin-6-amine], the IC50 in assay [1] is less than 0.01 µM; in assay [2] it was less than 0.01 µM; in assay [3] it was 0.01 to 0.1 µM.

Values taken from US11247990B1, “Bicyclic fused pyridine compounds as inhibitors of TAM kinases” (ARRAY BIOPHARMA INC., priority 2017, dated 2022).
